Experiment [1] relates to cuprizone demyelinated mice. Description: In vivo remyelination in cuprizone-demyelinated mice (MBP IHC, mbp qPCR, TEM G ratio). More on the design: species or system mouse.
Source text: (§1) FIG. 8: MBP expression in the corpus callosum upon PDE4 inhibition. A) IHC; B no IHC. Forty-two eleven-weeks-old male C57bl6 mice were either subjected to a cuprizone treatment to induce demyelination (n=32) or left without treatment (control; n=10) for six weeks (day 0-42). From day 40 till day 49, the control mice and part of the cuprizone-treated mice (vehicle; n=10) received a vehicle treatment, receiving a s.c. injection with a 1% DMSO in 0.5% methylcellulose solution twice a day. The remaining cuprizone-treated mice received a roflumilast treatment (roflu 1 mg/kg (n=11) or roflu 3 mg/kg (n=11) in vehicle) twice a day from day 40-49. All animals were sacrificed at day 49. Brains were isolated at anteroposterior coordinates from −0.3 to −1.5 mm was cut in the midsagittal plane and used for slicing and immunohistochemistry (IHC) against MBP.
as §1, with “9:” for “8:”, “hippocampus” for “corpus callosum”, “inhibition.” for “inhibition. A) IHC; B no IHC.”, “immunohistochemistry” for “immunohistochemistry (IHC)”
FIG. 10: MBP expression in the corpus callosum upon PDE4 inhibition. C57bl6 mice were either subjected to a cuprizone treatment to induce demyelination or left without treatment for six weeks (day 0-42). From day 40 till day 49, the control mice and part of the cuprizone-treated mice received a vehicle treatment, receiving a s.c. injection with a 1% DMSO in 0.5% methylcellulose solution twice a day. The remaining cuprizone-treated mice received a roflumilast treatment (roflu 1 mg/kg or roflu 3 mg/kg in vehicle) twice a day from day 40-49. All animals were sacrificed at day 49. The left part of the corpus callosum at bregma Y-Z was used for TEM and subsequent G ratio measurement. G ratio is the ratio of the inner axonal diameter to the total outer diameter representing myelination of axons (e.g. a higher G ratio represents a demyelination). […] Data are expressed as mean±SEM with. (*p<0.05, **p<0.01, ***p<0.001). Control (n=5), vehicle (n=5), roflu 1 mg/kg (n=7), and roflu 3 mg/kg (n=9).
FIG. 12: MBP expression in the corpus callosum upon PDE4 inhibition. Thirty-six eleven-weeks-old male C57bl6 mice were either subjected to a cuprizone treatment to induce demyelination (n=27) or left without treatment (control; n=9) for six weeks (day 0-42). From day 40 till day 49, the control mice and part of the cuprizone-treated mice (vehicle; n=9) received a vehicle treatment, receiving a s.c. injection with a 1% DMSO in 0.5% methylcellulose solution twice a day. The remaining cuprizone-treated mice received a gebr32a treatment (gebr32a 0.1 mg/kg (n=9) or gebr32a 0.3 mg/kg (n=9) in vehicle) twice a day from day 40-49. All animals were sacrificed at day 49. Brains were isolated at anteroposterior coordinates from −0.3 to −1.5 mm was cut in the midsagittal plane and used for slicing and immunohistochemistry against MBP.
FIG. 13. MBP expression in the dendate gyrus upon PDE4D inhibition. Thirty-six eleven-weeks-old male C57bl6 mice were either subjected to a cuprizone treatment to induce demyelination (n=27) or left without treatment (control; n=9) for six weeks (day 0-42). From 20 day 40 till day 49, the control mice and part of the cuprizone-treated mice (vehicle; n=9) received a vehicle treatment, receiving a s.c. injection with a 1% DMSO in 0.5% methylcellulose solution twice a day. […]
In general terms: Real-time PCR tracks product formation cycle by cycle.

Another experiment relates to mice with EAE. Description: Experimental autoimmune encephalomyelitis (EAE) clinical score. The experiment is classed as in vivo, mouse. As to conditions: prophylactic, 27 days. As to the method:
Fifty-six ten-weeks-old female C57bl6 mice were immunized in the flank and neck with 200 μg/mouse MOG35-55 peptide (Hooke) emulsified in Complete Freund's Adjuvant containing Mycobacterium tuberculosis. Immediately after immunization, treatment was started and lasted for 27 days. Treatment consisted of twice a day a s.c. injection with a 1% DMSO in 0.5% methylcellulose solution, roflumilast (0.3 mg/kg or 3 mg/kg in vehicle) or gebr32a (0.3 mg/kg in vehicle). All animals were sacrificed at day 27. Animals were neurologically scored for clinical signs on a daily basis using the following scores: 0=normal behavior, 0.5=distal limp tail, 1=complete limp tail, 2=limp tail and hind leg inhibition, 2.5=limp tail and weakness of hind legs, 3=limp tail and dragging of hind legs, 3.5=limp tail, complete paralysis of hind legs and animal is unable to right itself when placed on its side, 4=limp tail, complete hind leg paralysis and partial front leg paralysis, 4.5=limp tail, complete hind leg paralysis, partial front leg paralysis and no movement around the cage, 5=death.
Ten-weeks-old female C57bl6 mice (n=56) were immunized in the flank and neck with 200 μg/mouse MOG35-55 peptide (Hooke) emulsified in Complete Freund's Adjuvant containing Mycobacterium tuberculosis. Immediately after immunization, treatment was started and lasted for 27 days. […]

The mark [2] stands for this setting: 0.1 mg/kg s.c. twice a day, day 40-49.
The mark [3] stands for this setting: 0.3 mg/kg s.c. twice a day, day 40-49, vs vehicle treated mice.
Setting [4] is: 3 mg/kg s.c. twice a day, day 40-49.
[5] abbreviates: 3 mg/kg s.c. twice a day, day 40-49, vs vehicle-treated cuprizone mice.

Experimental findings from patent publication US20210145838A1, “SELECTIVE PDE4D INHIBITORS AGAINST DEMYELINATING DISEASES” (Universiteit Hasselt, priority 2018, published 2021) are described below.

As to `OC(CN1CCOCC1)Cn1ccc(-c2ccc(OC(F)F)c(OC3CCCC3)c2)n1` (centres unmarked) [Gebr32a], in experiment [1] (setting [2]), the “MBP expression in the corpus callosum (IHC)” value is reported as “not sufficient to significantly improve MPB expression” and the “MBP expression in the dendate gyrus (IHC)” value is on record as “not sufficient to significantly improve MPB expression”. Moreover, in experiment [1] (setting [3]), the “MBP expression in the corpus callosum (IHC)” value was “significantly increased MBP expression” and the “MBP expression in the dendate gyrus (IHC)” value is recorded as “significantly increased MBP expression”. In addition, the “Remyelination-inducing dosage compared to roflumilast treatment” value in experiment [1] (lower dosage, 0.3 mg/kg vs 3 mg/kg) is listed as 10 fold. For the same compound, in the experiment with mice with EAE (0.3 mg/kg s.c. twice a day), the “Clinical score of EAE mice” value is recorded as “no effect”.
In the case of `O=C(Nc1c(Cl)cncc1Cl)c1ccc(OC(F)F)c(OCC2CC2)c1` [roflumilast], in experiment [1] (1 mg/kg and 3 mg/kg s.c. twice a day, day 40-49), the “Relative mbp gene expression in the corpus callosum (qPCR)” value is “not altered”. The “G ratio in the corpus callosum (TEM)” value in experiment [1] (1 mg/kg s.c. twice a day, day 40-49) is recorded as “re-establishment of the G ratio to control levels”. The “mbp mRNA expression in the corpus callosum (qPCR) compared to the control” value in experiment [1] (1 mg/kg s.c. twice a day, vs non-demyelinated control) is “reduced mbp mRNA expression”. Moreover, in experiment [1] (setting [4]), the “G ratio in the corpus callosum (TEM)” value was “re-establishment of the G ratio to control levels”; the “MBP expression in hippocampus CA1 and CA3 (IHC)” value was “not in the cornu amonis 1 (CA1) or 3 (CA3)”. In addition, in experiment [1] (setting [5]), the “MBP expression in the corpus callosum (IHC)” value is listed as “increased MBP expression” and the “MBP expression in the dendate gyrus (IHC)” value is “increased MBP expression”. In addition, the “Disease score of EAE mice, dose dependence” value in the experiment with mice with EAE (0.3 mg/kg and 3 mg/kg s.c. twice a day) was “dose-dependent decrease in disease score”.
